According to patent US20260174762A1, “OLCEGEPANT FOR TREATING SEPSIS” (Boehringer Ingelheim International GmbH, priority 2022, published 2026):

How the values were obtained:
pig sepsis model = conditions: intravenous bolus injection; cited from earlier work
[1] = test system: CLP-induced polymicrobial sepsis; assay: Chronic model of CLP: survival rate; format: in vivo, mouse; conditions: 30 mg/kg s.c. 2 h after CLP induction and once daily from day 1 to day 6; 10 mice per group
Experimental: Two models were performed: • A cute model of CLP lasting 24 h to measure vascular hyper-permeability in lung, liver, kidney and heart tissue. The vascular hyper-permeability was followed by the extravasation of Evans blue injected intravenously and diffused and accumulated into the tissue. The vascular hyper-permeability was expressed as μg of Evans blue in 100 mg of dry tissue. • Chronic model of CLP lasting 8 days. CLP is performed on day 0 and the survival rate is followed for 8 consecutive days
On day 0, mice were anesthetized with ketamine (80 mg kg^−1, i.p.) and xylazine (10 mg kg^−1, i.p.). A 1-1.5 cm abdominal midline incision was made, and the caecum was located and tightly ligated at half the distance between distal pole and the base of the caecum with 4-0 silk suture (mild grade). The caecum was punctured through-and-through once with a 21-gauge needle after medium ligation. A small amount of stool was extruded to ensure that the wounds were patent. Then the cecum was replaced in its original position within the abdomen, which was closed with sutures in layers. For negative control animals, a sham surgery was performed: sham-operated animals underwent identical laparotomy but without cecal ligation or puncture. The animals were resuscitated immediately after surgery with 1 mL subcutaneous normal saline and returned to their cages. […]

mouse CLP model = conditions: WO 2018/154015, cited from earlier work

NCCCC[C@H](NC(=O)[C@@H](Cc1cc(Br)c(O)c(Br)c1)NC(=O)N1CCC(N2Cc3ccccc3NC2=O)CC1)C(=O)N1CCN(c2ccncc2)CC1 [olcegepant]
survival improvement (pig sepsis model): did not show any survival improvement | survival rate at day 8 [1]: 20% | mice rescued at day 4 (mouse CLP model; 100 mg/kg subcutaneous twice daily, mouse CLP model): 20% | mice rescued (mouse CLP model; subcutaneous bolus injection, mouse sepsis model): 2 out of 10
